According to patent US10034861B2 (priority 2016, dated 2018):
pIC50: −log10 of the molar value. Where two headings read alike, the source gives them in different places.

Key:
PDE1B = PDE1B (Homo sapiens (Human), UniProt Q01064); assay: PDE1 inhibition assay (PDE1B); assay type: biochemical; details: 15 nM tritium labelled cAMP, 1 hr at room temperature, SPA beads; for pIC50: read-out: PDE1B, IC50; for IC50: PDE1B, IC50 (nM)
Source text: (§1) Table 1 lists the IC50 value for inhibition of PDE1 by the compounds of the invention. […] PDE1 assays are described in the Experimental Section.

PDE1C [1] = molecular target: T1, PDE1C (Homo sapiens (Human), UniProt Q14123); assay: biochemical; assay type: biochemical
Source text: as §1

PDE1A = PDE1A (Homo sapiens (Human), UniProt P54750); assay: biochemical; assay type: biochemical
Source text: as §1

PDE1C [2] = molecular target: T1, PDE1C; assay: biochemical; details: read-out: PDE1C, inhibition at 10 μM
[3] = 15 nM tritium labelled cAMP, 1 hr at room temperature, SPA beads

Sequence of PDE1B (Q01064 whole entry): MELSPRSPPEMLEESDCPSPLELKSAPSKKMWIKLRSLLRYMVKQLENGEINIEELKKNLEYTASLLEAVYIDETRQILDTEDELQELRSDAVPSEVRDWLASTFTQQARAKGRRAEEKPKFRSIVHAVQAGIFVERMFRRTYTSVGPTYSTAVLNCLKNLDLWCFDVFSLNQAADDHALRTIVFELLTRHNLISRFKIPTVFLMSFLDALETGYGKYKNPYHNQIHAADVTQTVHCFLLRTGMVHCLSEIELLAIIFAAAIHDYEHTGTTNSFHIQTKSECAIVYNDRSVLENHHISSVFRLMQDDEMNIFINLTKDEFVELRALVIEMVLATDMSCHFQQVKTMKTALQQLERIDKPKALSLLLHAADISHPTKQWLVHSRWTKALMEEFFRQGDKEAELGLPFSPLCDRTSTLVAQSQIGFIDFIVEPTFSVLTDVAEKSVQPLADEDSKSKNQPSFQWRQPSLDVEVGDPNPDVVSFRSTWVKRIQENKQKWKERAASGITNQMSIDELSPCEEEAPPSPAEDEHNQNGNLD
Sequence of PDE1A (P54750 whole entry): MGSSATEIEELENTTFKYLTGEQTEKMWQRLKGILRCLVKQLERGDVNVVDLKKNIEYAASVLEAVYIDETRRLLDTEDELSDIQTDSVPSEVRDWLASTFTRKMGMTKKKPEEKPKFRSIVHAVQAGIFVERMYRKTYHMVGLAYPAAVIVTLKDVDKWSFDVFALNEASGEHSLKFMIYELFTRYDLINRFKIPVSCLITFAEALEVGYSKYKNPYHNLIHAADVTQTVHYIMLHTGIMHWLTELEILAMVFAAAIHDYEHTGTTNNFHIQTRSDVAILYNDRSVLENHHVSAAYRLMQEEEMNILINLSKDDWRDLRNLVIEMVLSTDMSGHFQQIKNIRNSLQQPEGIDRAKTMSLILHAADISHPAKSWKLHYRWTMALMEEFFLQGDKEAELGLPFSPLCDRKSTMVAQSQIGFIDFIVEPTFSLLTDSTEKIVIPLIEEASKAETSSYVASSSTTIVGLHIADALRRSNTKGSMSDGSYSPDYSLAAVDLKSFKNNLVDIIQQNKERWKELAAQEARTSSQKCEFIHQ
T1 sequence (Q14123 whole entry): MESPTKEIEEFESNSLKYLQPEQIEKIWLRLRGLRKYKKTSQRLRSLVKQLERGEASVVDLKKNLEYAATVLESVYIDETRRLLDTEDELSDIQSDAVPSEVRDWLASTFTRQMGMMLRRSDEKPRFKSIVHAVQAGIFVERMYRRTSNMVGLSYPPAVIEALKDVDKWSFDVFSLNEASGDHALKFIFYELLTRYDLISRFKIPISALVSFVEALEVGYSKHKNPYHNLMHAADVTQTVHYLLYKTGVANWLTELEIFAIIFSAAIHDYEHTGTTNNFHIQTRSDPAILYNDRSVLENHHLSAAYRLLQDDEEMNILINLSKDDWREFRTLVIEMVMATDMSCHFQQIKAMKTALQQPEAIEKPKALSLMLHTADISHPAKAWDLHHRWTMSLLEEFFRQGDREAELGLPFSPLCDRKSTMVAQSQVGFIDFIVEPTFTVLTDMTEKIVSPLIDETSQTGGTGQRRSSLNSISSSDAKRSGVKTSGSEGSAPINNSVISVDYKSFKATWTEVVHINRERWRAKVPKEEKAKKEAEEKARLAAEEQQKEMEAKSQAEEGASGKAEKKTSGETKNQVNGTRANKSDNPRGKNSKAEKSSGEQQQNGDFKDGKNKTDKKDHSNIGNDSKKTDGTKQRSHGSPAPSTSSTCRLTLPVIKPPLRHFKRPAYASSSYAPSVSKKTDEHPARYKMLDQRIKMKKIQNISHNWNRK

SMILES	pIC50 (PDE1B)	pIC50 (PDE1C [1]; [3])	pIC50 (PDE1A; [3])	IC50 (PDE1B) [nM]	inhibition at 10 µM (PDE1C [2]) [%]	pIC50 (PDE1C [1])	pIC50 (PDE1A)
CCOc1ncccc1-c1cc(NCc2ccnc(C)n2)c2c(n1)c(C)nn2C(C)C [Example 105, 5-(2-ethoxy-3-pyridyl)-1-isopropyl-3-methyl-N-[(2-methylpyrimidin-4-yl)methyl]pyrazolo[4,3-b]pyridin-7-amine]	7.92	6.82	7.27				
CCOc1ncccc1-c1cc(NCc2ncc(OC)cn2)c2c(n1)c(C)nn2C(C)C [Example 176, 5-(2-ethoxy-3-pyridyl)-1-isopropyl-N-[(5-methoxypyrimidin-2-yl)methyl]-3-methyl-pyrazolo[4,3-b]pyridin-7-amine]	7.92	7.03	7.09				
CCOc1ncccc1-c1cc(NCc2cn(C)c(C)n2)c2c(n1)c(C)nn2C(C)C [Example 51, N-((1,2-dimethyl-1H-imidazol-4-yl)methyl)-5-(2-ethoxypyridin-3-yl)-1-isopropyl-3-methyl-1H-pyrazolo[4,3-b]pyridin-7-amine 2,2,2-trifluoroacetate]	8.04	7.06	7.28				
CCOc1ncccc1-c1cc(NC(C)c2cnn(C)c2)c2c(cnn2C)n1 (racemic) [Example 15, 5-(2-ethoxypyridin-3-yl)-1-methyl-N-(1-(1-methyl-1H-pyrazol-4-yl)ethyl)-1H-pyrazolo[4,3-b]pyridin-7-amine]			6.09	200	36		
COc1ccccc1-c1cc(NCc2cnn(C)c2)c2c(n1)c(C)nn2C(C)C [Example 63, 1-isopropyl-5-(2-methoxyphenyl)-3-methyl-N-[(1-methylpyrazol-4-yl)methyl]pyrazolo[4,3-b]pyridin-7-amine]	8.03	7.70	7.19				
COc1ncccc1CNc1cc(-c2ccc[nH]c2=O)nc2c(C)nn(C(C)C)c12 [Example 171, 3-[1-isopropyl-7-[(2-methoxy-3-pyridyl)methylamino]-3-methyl-pyrazolo[4,3-b]pyridin-5-yl]-1H-pyridin-2-one]	7.33	6.38	6.54				
CCOc1ncccc1-c1cc(NCc2nccs2)c2c(cnn2C(C)C)n1 [Example 20, 5-(2-ethoxy-3-pyridyl)-1-isopropyl-N-(thiazol-2-ylmethyl)pyrazolo[4,3-b]pyridin-7-amine]	7.43	6.22	6.28				
CCOc1ncccc1-c1cc(NCc2ccc(OC)cn2)c2c(n1)c(C)nn2C(C)C [Example 112, 5-(2-ethoxy-3-pyridyl)-1-isopropyl-N-[(5-methoxy-2-pyridyl)methyl]-3-methyl-pyrazolo[4,3-b]pyridin-7-amine]	7.92	7.00	7.21				
CCOc1ncccc1-c1cc(NCc2cnccn2)c2c(n1)c(C)nn2C(C)C [Example 76, 5-(2-ethoxy-3-pyridyl)-1-isopropyl-3-methyl-N-(pyrazin-2-ylmethyl)pyrazolo[4,3-b]pyridin-7-amine]	8.54	7.49	7.64				
[2H]C([2H])([2H])COc1ncccc1-c1cc(NCc2cccnc2OC)c2c(n1)c(C)nn2C(C)C [Example 182, 5-(2-(ethoxy-2,2,2-d3)pyridin-3-yl)-1-isopropyl-N-((2-methoxypyridin-3-yl)methyl)-3-methyl-1H-pyrazolo[4,3-b]pyridin-7-amine]				1.1		7.21	7.62
CCOc1ncccc1-c1cc(NCc2cnn(C)c2)c2c(n1)c(C)nn2CC [Example 48, 5-(2-ethoxypyridin-3-yl)-1-ethyl-3-methyl-N-((1-methyl-1H-pyrazol-4-yl)methyl)-1H-pyrazolo[4,3-b]pyridin-7-amine]	8.20	6.77	7.42				
CCOc1ncccc1-c1cc(CNc2ncn(C)n2)c2c(n1)c(C)nn2C(C)C [Example 158, N-[[5-(2-ethoxy-3-pyridyl)-1-isopropyl-3-methyl-pyrazolo[4,3-b]pyridin-7-yl]methyl]-1-methyl-1,2,4-triazol-3-amine]	8.31	7.30	7.64				
COc1ncccc1CNc1cc(-c2cccnc2OC(F)F)nc2c(C)nn(C(C)C)c12 [Example 188, 5-[2-(difluoromethoxy)-3-pyridyl]-1-isopropyl-N-[(2-methoxy-3-pyridyl)methyl]-3-methyl-pyrazolo[4,3-b]pyridin-7-amine]	8.11	7.22	7.21				
CCOc1ncccc1-c1cc(NCc2ccccc2OC)c2c(n1)c(C)nn2C(C)C [Example 88, 5-(2-ethoxy-3-pyridyl)-1-isopropyl-N-[(2-methoxyphenyl)methyl]-3-methyl-pyrazolo[4,3-b]pyridin-7-amine]	8.29	6.77	6.96				
CCOc1ncccc1-c1cc(NCc2csc(C)n2)c2c(n1)c(C)nn2C1COC1 [Example 113, 5-(2-ethoxy-3-pyridyl)-3-methyl-N-[(2-methylthiazol-4-yl)methyl]-1-(oxetan-3-yl)pyrazolo[4,3-b]pyridin-7-amine]	8.24	6.89	6.96				
Cc1nn(C(C)C)c2c(NCc3cc[nH]n3)cc(-c3ccc[nH]c3=O)nc12 [Example 187, 3-[1-isopropyl-3-methyl-7-(1H-pyrazol-3-ylmethylamino)pyrazolo[4,3-b]pyridin-5-yl]-1H-pyridin-2-one]	7.74	6.60	6.85				
CCOc1ncccc1-c1cc(NCc2cn(C)cn2)c2c(cnn2C(C)C)n1 [Example 21, 5-(2-ethoxy-3-pyridyl)-1-isopropyl-N-[(1-methylimidazol-4-yl)methyl]pyrazolo[4,3-b]pyridin-7-amine]	9.36	7.54	8.05				
COc1ccc(CNc2cc(-c3cccnc3N(C)C)nc3c(C)nn(C(C)C)c23)cc1 [Example 192, 5-[2-(dimethylamino)-3-pyridyl]-1-isopropyl-N-[(4-methoxyphenyl)methyl]-3-methyl-pyrazolo[4,3-b]pyridin-7-amine]	7.15	6.31	6.20				
CCOc1ncccc1-c1cc(NCc2ccc(F)nc2)c2c(n1)c(C)nn2C(C)C [Example 116, 5-(2-ethoxy-3-pyridyl)-N-[(6-fluoro-3-pyridyl)methyl]-1-isopropyl-3-methyl-pyrazolo[4,3-b]pyridin-7-amine]	8.62	7.34	7.68				
CCOc1ncccc1-c1cc(CCc2cncc(OC)c2)c2c(n1)c(C)nn2C(C)C [Example 159, 5-(2-ethoxy-3-pyridyl)-1-isopropyl-7-[2-(5-methoxy-3-pyridyl)ethyl]-3-methyl-pyrazolo[4,3-b]pyridine]	7.15	5.80	6.57				
